Experiment [1] deals with Staphylococcus aureus S13E. As to conditions: agar dilution.
Experiment [2] has as its system Streptococcus pyogenes C203. Particulars: agar dilution.
Experiment [3] has as its system Staphylococcus aureus NRRL B313. Particulars: agar dilution. A general note: In agar dilution the substance is mixed into plates at graded concentrations.
Experiment [4] concerns Haemophilus influenzae C.L. Particulars: agar dilution.
In experiment [5] the test system is Streptococcus faecium ATCC 9790. As to conditions: agar dilution.
Experiment [6] has as its system Klebsiella pneumoniae KAE. As to conditions: agar dilution.
Experiment [7] deals with Streptococcus pneumoniae Park 1. Particulars: agar dilution.
The next experiment concerns Staphylococcus aureus. Briefly: Experimental bacterial infection in mice, ED50. As to conditions: two doses, administered subcutaneously. In kind it is in vivo.
Experiment [8] deals with Klebsiella pneumoniae X68. Particulars: agar dilution.
The next experiment has as its system Streptococcus pyogenes. Briefly: Experimental bacterial infection in mice, ED50. In kind it is in vivo. As to conditions: two doses, administered subcutaneously.
Experiment [9] concerns Staphylococcus aureus X400. As to conditions: agar dilution.
For experiment [10], the system named is Staphylococcus aureus V41. As to conditions: agar dilution.
The subject of a further experiment is Escherichia coli EC14. As to conditions: agar dilution.
The subject of experiment [11] is Staphylococcus epidermidis EPI1. Particulars: agar dilution.
The next experiment deals with Streptococcus pneumoniae. Kind of experiment: Experimental bacterial infection in mice, ED50. In kind it is in vivo. Particulars: two doses, administered subcutaneously.
In experiment [12] the test system is Staphylococcus epidermidis 222. As to conditions: agar dilution.
Experiment [13] concerns Streptococcus sp. group D 2041. Particulars: agar dilution.
Experiment [14] relates to Klebsiella pneumoniae X26. Particulars: agar dilution.
Experiment [15] relates to Haemophilus influenzae 76. As to conditions: agar dilution.
The subject of the next experiment is Escherichia coli N10. As to conditions: agar dilution.
A further experiment relates to Escherichia coli TEM. Particulars: agar dilution.

Our source for the MIC and ED50 values is patent US4639433A, “Glycopeptide derivatives” (Eli Lilly and Company, priority 1985, dated 1987).

In brackets after ≈: the same amount, converted by molar mass.

With `CCCCCC(=O)NC1(C)CC(OC2C(Oc3c4cc5cc3Oc3ccc(cc3Cl)C(O)C3NC(=O)C(NC(=O)C5NC(=O)C(CC(N)=O)NC(=O)C(NC(=O)C(CC(C)C)NC)C(O)c5ccc(c(Cl)c5)O4)c4ccc(O)c(c4)-c4c(O)cc(O)cc4C(C(=O)O)NC3=O)OC(CO)C(O)C2O)OC(C)C1O` (stereo not drawn) [Compound 2, N^van --(1-oxo-n-hexyl)vancomycin], the MIC in experiment [1] was 4 µg/mL (≈ 2.58 µM); in experiment [2], 2 µg/mL (≈ 1.29 µM); in [3] it was 2 µg/mL (≈ 1.29 µM); in experiment [4], “-- (not active at 128 mcg/ml)”; in experiment [5], 4 µg/mL (≈ 2.58 µM); in [6], “-- (not active at 128 mcg/ml)”. For the same compound, the MIC in experiment [7] is 2 µg/mL (≈ 1.29 µM); in experiment [8], “-- (not active at 128 mcg/ml)”; in experiment [9] it was 4 µg/mL (≈ 2.58 µM); in experiment [10], 4 µg/mL (≈ 2.58 µM); in the experiment on Escherichia coli EC14, “-- (not active at 128 mcg/ml)”; in experiment [11] it was 16 µg/mL (≈ 10.3 µM). Also, the MIC was 8 µg/mL (≈ 5.17 µM) in experiment [12]; 16 µg/mL (≈ 10.3 µM) in [13]; “-- (not active at 128 mcg/ml)” in experiment [14]; 128 µg/mL (≈ 82.7 µM) in [15]; “-- (not active at 128 mcg/ml)” with Escherichia coli N10; “-- (not active at 128 mcg/ml)” in the experiment on Escherichia coli TEM. The ED50 is given as 11.2 mg/kg/2 with Staphylococcus aureus, 12.9 mg/kg/2 in the experiment on Streptococcus pyogenes and 3.5 mg/kg/2 in the experiment on Streptococcus pneumoniae.
Take `CCCCCCCCCCCCCC(=O)NC1(C)CC(OC2C(Oc3c4cc5cc3Oc3ccc(cc3Cl)C(O)C3NC(=O)C(NC(=O)C5NC(=O)C(CC(N)=O)NC(=O)C(NC(=O)C(CC(C)C)NC)C(O)c5ccc(c(Cl)c5)O4)c4ccc(O)c(c4)-c4c(O)cc(O)cc4C(C(=O)O)NC3=O)OC(CO)C(O)C2O)OC(C)C1O` (stereo not drawn) [Compound 14, N^van --(1-oxo-n-tetradecyl)vancomycin]: the MIC in experiment [1] was 0.5 µg/mL (≈ 0.301 µM); in [2], 2 µg/mL (≈ 1.21 µM); in experiment [3], 2 µg/mL (≈ 1.21 µM); in experiment [4] it was 128 µg/mL (≈ 77.1 µM); in experiment [5], 0.5 µg/mL (≈ 0.301 µM); in experiment [6], “-- (not active at 128 mcg/ml)”. The MIC is 2 µg/mL (≈ 1.21 µM) in [7]; “-- (not active at 128 mcg/ml)” in experiment [8]; 2 µg/mL (≈ 1.21 µM) in [9]; 2 µg/mL (≈ 1.21 µM) in experiment [10]; “-- (not active at 128 mcg/ml)” in the experiment on Escherichia coli EC14; 8 µg/mL (≈ 4.82 µM) in [11]. The MIC in [12] is 2 µg/mL (≈ 1.21 µM); in experiment [13], 0.5 µg/mL (≈ 0.301 µM); in experiment [14], “-- (not active at 128 mcg/ml)”; in [15] it was 128 µg/mL (≈ 77.1 µM); against Escherichia coli N10, “-- (not active at 128 mcg/ml)”; with Escherichia coli TEM, “-- (not active at 128 mcg/ml)”. Further, the values for the ED50 with Staphylococcus aureus, in the experiment with Streptococcus pyogenes and with Streptococcus pneumoniae were 6.6 mg/kg/2, 1.4 mg/kg/2 and 1.3 mg/kg/2, respectively.
Consider `CCCCCCCCCC(=O)NC1(C)CC(OC2C(Oc3c4cc5cc3Oc3ccc(cc3Cl)C(O)C3NC(=O)C(NC(=O)C5NC(=O)C(CC(N)=O)NC(=O)C(NC(=O)C(CC(C)C)NC)C(O)c5ccc(c(Cl)c5)O4)c4ccc(O)c(c4)-c4c(O)cc(O)cc4C(C(=O)O)NC3=O)OC(CO)C(O)C2O)OC(C)C1O` (stereo not drawn) [Compound 6, N^van-(1-oxo-n-Decyl)vancomycin], for which the MIC in experiment [1] was 0.5 µg/mL (≈ 0.312 µM); in [2], 0.5 µg/mL (≈ 0.312 µM); in experiment [3], 0.5 µg/mL (≈ 0.312 µM); in [4], “-- (not active at 128 mcg/ml)”; in experiment [5] it was 0.5 µg/mL (≈ 0.312 µM); in experiment [6], “-- (not active at 128 mcg/ml)”. The MIC is 1 µg/mL (≈ 0.624 µM) in experiment [7]; “-- (not active at 128 mcg/ml)” in [8]; 0.5 µg/mL (≈ 0.312 µM) in experiment [9]; 0.5 µg/mL (≈ 0.312 µM) in [10]; “-- (not active at 128 mcg/ml)” against Escherichia coli EC14; 2 µg/mL (≈ 1.25 µM) in experiment [11]. The MIC in experiment [12] was 1 µg/mL (≈ 0.624 µM); in experiment [13] it was 1 µg/mL (≈ 0.624 µM); in experiment [14] it was “-- (not active at 128 mcg/ml)”; in experiment [15], “-- (not active at 128 mcg/ml)”; against Escherichia coli N10, “-- (not active at 128 mcg/ml)”; in the experiment with Escherichia coli TEM, “-- (not active at 128 mcg/ml)”. The ED50 in the experiment on Staphylococcus aureus was found to be 5 mg/kg/2; with Streptococcus pyogenes it was 2.9 mg/kg/2; with Streptococcus pneumoniae it was 1.4 mg/kg/2.
Take `CCCCCCCCCCCC(=O)NC1(C)CC(OC2C(Oc3c4cc5cc3Oc3ccc(cc3Cl)C(O)C3NC(=O)C(NC(=O)C5NC(=O)C(CC(N)=O)NC(=O)C(NC(=O)C(CC(C)C)NC)C(O)c5ccc(c(Cl)c5)O4)c4ccc(O)c(c4)-c4c(O)cc(O)cc4C(C(=O)O)NC3=O)OC(CO)C(O)C2O)OC(C)C1O` (stereo not drawn) [Compound 12, N^van --(1-oxo-n-dodecyl)vancomycin]: the MIC is 0.5 µg/mL (≈ 0.306 µM) in experiment [1]; 0.5 µg/mL (≈ 0.306 µM) in experiment [2]; 0.25 µg/mL (≈ 0.153 µM) in experiment [3]; “-- (not active at 128 mcg/ml)” in [4]; 0.5 µg/mL (≈ 0.306 µM) in [5]; “-- (not active at 128 mcg/ml)” in experiment [6]. For the same compound, the MIC in experiment [7] is 0.5 µg/mL (≈ 0.306 µM); in experiment [8], “-- (not active at 128 mcg/ml)”; in experiment [9] it was 0.5 µg/mL (≈ 0.306 µM); in experiment [10], 0.25 µg/mL (≈ 0.153 µM); in the experiment with Escherichia coli EC14 it was “-- (not active at 128 mcg/ml)”; in experiment [11], 2 µg/mL (≈ 1.23 µM). The MIC is 0.5 µg/mL (≈ 0.306 µM) in experiment [12]; 0.5 µg/mL (≈ 0.306 µM) in [13]; “-- (not active at 128 mcg/ml)” in experiment [14]; “-- (not active at 128 mcg/ml)” in experiment [15]; “-- (not active at 128 mcg/ml)” against Escherichia coli N10; “-- (not active at 128 mcg/ml)” against Escherichia coli TEM. Moreover, the figures for the ED50 in the experiment with Staphylococcus aureus, in the experiment with Streptococcus pyogenes and in the experiment on Streptococcus pneumoniae were 6.8 mg/kg/2, 1.6 mg/kg/2 and 0.9 mg/kg/2, respectively.
With `C=CCCCCCCCCC(=O)NC1(C)CC(OC2C(Oc3c4cc5cc3Oc3ccc(cc3Cl)C(O)C3NC(=O)C(NC(=O)C5NC(=O)C(CC(N)=O)NC(=O)C(NC(=O)C(CC(C)C)NC)C(O)c5ccc(c(Cl)c5)O4)c4ccc(O)c(c4)-c4c(O)cc(O)cc4C(C(=O)O)NC3=O)OC(CO)C(O)C2O)OC(C)C1O` (stereo not drawn) [Compound 9, N^van --(1-oxo-10-n-decenyl)vancomycin], the MIC in experiment [1] is 0.5 µg/mL (≈ 0.309 µM); in experiment [2], 0.25 µg/mL (≈ 0.155 µM); in experiment [3], 0.5 µg/mL (≈ 0.309 µM); in experiment [4] it was “-- (not active at 128 mcg/ml)”; in experiment [5], 0.25 µg/mL (≈ 0.155 µM); in experiment [6], “-- (not active at 128 mcg/ml)”. The MIC is 0.25 µg/mL (≈ 0.155 µM) in experiment [7]; “-- (not active at 128 mcg/ml)” in experiment [8]; 0.5 µg/mL (≈ 0.309 µM) in experiment [9]; 0.5 µg/mL (≈ 0.309 µM) in experiment [10]; “-- (not active at 128 mcg/ml)” against Escherichia coli EC14; 2 µg/mL (≈ 1.24 µM) in experiment [11]. Moreover, the MIC in experiment [12] is 0.5 µg/mL (≈ 0.309 µM); in experiment [13], 1 µg/mL (≈ 0.619 µM); in [14], “-- (not active at 128 mcg/ml)”; in experiment [15] it was 128 µg/mL (≈ 79.2 µM); in the experiment with Escherichia coli N10 it was “-- (not active at 128 mcg/ml)”; against Escherichia coli TEM, “-- (not active at 128 mcg/ml)”. Also, the ED50 with Staphylococcus aureus is given as 3.7 mg/kg/2; with Streptococcus pyogenes, 1.9 mg/kg/2; in the experiment with Streptococcus pneumoniae it was 1.8 mg/kg/2.
As to `CCCCCCCC(=O)NC1(C)CC(OC2C(Oc3c4cc5cc3Oc3ccc(cc3Cl)C(O)C3NC(=O)C(NC(=O)C5NC(=O)C(CC(N)=O)NC(=O)C(NC(=O)C(CC(C)C)NC)C(O)c5ccc(c(Cl)c5)O4)c4ccc(O)c(c4)-c4c(O)cc(O)cc4C(C(=O)O)NC3=O)OC(CO)C(O)C2O)OC(C)C1O` (stereo not drawn) [Compound 3, N^van --(1-oxo-n-octyl)vancomycin], the MIC in experiment [1] was 2 µg/mL (≈ 1.27 µM); in experiment [2], 0.5 µg/mL (≈ 0.317 µM); in [3] it was 1 µg/mL (≈ 0.635 µM); in experiment [4], “-- (not active at 128 mcg/ml)”; in experiment [5] it was 2 µg/mL (≈ 1.27 µM); in experiment [6] it was “-- (not active at 128 mcg/ml)”. The MIC was 0.5 µg/mL (≈ 0.317 µM) in experiment [7]; “-- (not active at 128 mcg/ml)” in [8]; 2 µg/mL (≈ 1.27 µM) in experiment [9]; 2 µg/mL (≈ 1.27 µM) in [10]; “-- (not active at 128 mcg/ml)” against Escherichia coli EC14; 8 µg/mL (≈ 5.08 µM) in [11]. Besides, the MIC in experiment [12] was 2 µg/mL (≈ 1.27 µM); in experiment [13], 4 µg/mL (≈ 2.54 µM); in experiment [14], “-- (not active at 128 mcg/ml)”; in [15], “-- (not active at 128 mcg/ml)”; in the experiment on Escherichia coli N10 it was “-- (not active at 128 mcg/ml)”; against Escherichia coli TEM, “-- (not active at 128 mcg/ml)”. For the same compound, the ED50 with Staphylococcus aureus is recorded as 6.9 mg/kg/2; in the experiment with Streptococcus pyogenes, 4.4 mg/kg/2; in the experiment on Streptococcus pneumoniae, 4.8 mg/kg/2.
